# Key:
# α-Syn aggregated neurons = experiment: Staining of primary cultured neurons infected with AAV α-Syn and treated with α-Syn PFFs, fluorescence microscopy; format: cell-based, Sprague-Dawley rats; details: compounds 0.1 mM; Fig. 1
# Experimental: Primary cultured neurons were infected with adeno-associated virus (AAV) encoding a-Syn for 7 days and then treated with a-Syn PFFs. The candidate compounds were added to the primary neurons with the indicated aggregates and analyzed using fluorescence microscopy.
# Primary hippocampal neurons were isolated from […] pregnant rats. The Sprague-Dawley rats were used at embryonic E18 days. The cortical tissue was isolated, dissociated, and incubated with 5 ml of D-Hanks containing 0.25% trypsin for 5 min at 37 °C in a humidified atmosphere of 5% CO2, centrifuged at 1000 x g for 5 min after addition of 4 ml of the neuronal plating medium containing DMEM/F12 with 10% fetal bovine serum. The 1 × 10^5 cells were plated in 6-well plates for further process. DIV7 neurons were infected with AAV α-Syn FL virus and at DIV12, the neurons were transduced with 100 ng/ml α-Syn PFF, α-Syn 1-140 were incubated with the cultured primary neurons in sterile PBS to a final concentration of 0.1 mg/ml. Sonicated PFFs, or an equivalent volume of the monomer as a control, were transferred into pre-warmed neuronal medium at a final concentration of 100 ng/ml. The samples were immune-stained with anti-p-α-Syn S129 (Abcam; Catalog No.: ab59264) (pseudo-colors were converted to red) to detect a-Syn aggregates and then stained with ThT (Sigma; Catalog No.: S96200) or compounds (0.1 mM).
# Aβ = target: T1, Aβ (Homo sapiens, UniProt P05067); experiment: In vivo validation: tail vein injection, then staining of brain sections; parameters: species or system 5xFAD mice; details: 2 mg/kg tail vein injection; 0.5 hours after administration
# T1 construct: tissue The Jackson Laboratory 034840; host or cells: brain of 5xFAD mice, compound injected in vivo, sections made afterwards
# T1 sequence (P05067 672-713 limits assumed): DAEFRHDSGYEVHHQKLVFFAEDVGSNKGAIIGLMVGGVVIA
# Experimental: (§1) In vivo validation of the compounds was performed using 8-month-old wild-type mice (Jiangsu Aniphe Biolaboratory Inc), 12-month-old 5xFAD mice (The Jackson Laboratory; Catalog No.: 034840), 6-month-old Tau P301S mice (The Jackson Laboratory; Catalog No.: 008169), and rotenone-treated α-Syn A53T mice (The Jackson Laboratory; Catalog No.: 017682). All mice were stratified by sex and randomly divided into groups, and the compounds were administered via tail vein injection at a dose of 2 mg/kg. Tissues were harvested and mouse brain sections were prepared 0.5 hours after administration, followed by staining with anti-Aβ (Biolegend; Catalog No.: SIG-39300) or AT8 (Thermo Fisher; Catalog No.: MN1020) together with the compounds, respectively.
# Aβ aggregates [1] = experiment: Fluorescence binding assay with protein aggregates (fluorescence spectrophotometer); details: Kd for Aβ to Kd for α-Synuclein
# Experimental: (§2) First, the compound was a final concentration of 5 µM by dissolved in 50 mM Tris-buffer (pH 7.0) with 0.0025% (v/v) DMSO. Then, Aβ, α-Synuclein, and Tau aggregates were added, with their final concentrations being 0.02, 0.04, 0.08, 0.16, 0.32, 0.64, and 1.28 µM, respectively. Subsequently, the fluorescence measurements were detected using a fluorescence spectrophotometer (Horiba, Fluorolog3).
# (§3) Aβ PFF: Aβ (1-42) peptide (rPeptide; catalog No.: A-1163-1) was resolved in 9 volumes of ice-cold distilled water and vortexed occasionally. After 30 min, one volume of 10X fibril-forming buffer (0.2 M NaPi, 1.5 M NaCl, 0.2% NaN3, pH 7.5) was added. The final concentration of peptide was 1 mg/ml. The solution was incubated at 37 °C for one week.
# (§4) Tau aggregates: The cDNA sequence of Tau was inserted into a plasmid carrying a GST tag, which was then transfected into BL21 bacteria for protein expression. Bacterial pellets were resuspended in high-salt buffer (0.75 M NaCl, 50 mM Tris, pH 7.4, 1 mM EDTA), sonicated, and centrifuged at 70,000 x g for 30 min. The supernatants were applied onto a Glutathione sepharose beads column (GE Healthcare) and purified by GST tag. Thrombin was used to remove the GST tag. The protein was dialyzed with FPLC buffer (50 mM NaCl, 50 mM Tris- HCl pH 7.4). The protein was filtered through a 0.22 µm syringe filter. The concentration of Tau was adjusted to 3 mg/mL, 12.5 µM heparin was added, and the mixture was shaken at 37 °C and 300 rpm for 7 days to prepare Tau aggregates. • Incubation Concentrations: 0.02, 0.04, 0.08, 0.16, 0.32, 0.64, and 1.28 µM; • Incubation Temperature: 37°C; • Incubation Duration: 5 min; • Detection Wavelengths: [formula]
# (§5) Statistical analysis was performed using GraphPad Prism® version 8.2.1.
# Aβ aggregates [2] = target: T2, Aβ aggregates (Homo sapiens, UniProt P05067); experiment: as above; details: Aβ aggregates; compound 5 µM, 37°C, 5 min
# T2 construct: Aβ (1-42) peptide (rPeptide; catalog No.: A-1163-1); purchased rPeptide A-1163-1
# T2 sequence (P05067 672-713): as the sequence (P05067 672-713 limits assumed) above
# Experimental: as §2, §3, §4, §5
# [3] = target: T3, α-Syn-p129 or α-Syn aggregates (Homo sapiens, UniProt P37840, A53T); experiment: In vivo validation: tail vein injection, then staining of brain sections; parameters: species or system rotenone-treated α-Syn A53T mice; details: 2 mg/kg tail vein injection; 0.5 hours after administration
# T3 construct: tissue The Jackson Laboratory 017682; host or cells: brain sections of rotenone-treated transgenic mice
# Experimental: as §1
# p-α-Syn S129 = target: T4, p-α-Syn S129 (Homo sapiens, UniProt P37840); experiment: Ex vivo staining of human DLB patient brain sections; format: binding; details: DLB patient brain slides; Fig. 3
# T4 construct: from tissue; host or cells: human DLB patient brain sections
# Experimental: The ex vivo screening was extended into human DLB, and AD patient samples. Neurodegenerative diseases of DLB belong to synucleino-pathies with well-defined Lewy bodies. Therefore, the positive compounds should show robust signals with LBs and LNs.
# For immunohistochemical staining, deparaffinized and antigen-retrieved 20 µm-thick human brain sections were treated with 0.3% H2O2 at room temperature for 10 min. Subsequently, the sections were washed in PBS with 0.3% Triton X-100 3 times and then blocked with 1% BSA for 30 min, followed by overnight incubation with anti-Aβ/AT8/α-Syn pS129 antibody at 4 °C. The signal was developed using a Histostain-SP kit (Invitrogen, Catalog No.: 95-9943). After washing, the sections were covered with a glass cover using mounting solution.
# Tau aggregates = Tau aggregates (Homo sapiens, UniProt P10636); experiment: Fluorescence binding assay with protein aggregates (fluorescence spectrophotometer); details: 5 min; for Ratio / α-Synuclein: Kd for Tau to Kd for α-Synuclein; for Kd: Tau aggregates, compound 5 µM, 37°C
# Sequence of Tau aggregates (P10636 with tags, fused parts or gaps): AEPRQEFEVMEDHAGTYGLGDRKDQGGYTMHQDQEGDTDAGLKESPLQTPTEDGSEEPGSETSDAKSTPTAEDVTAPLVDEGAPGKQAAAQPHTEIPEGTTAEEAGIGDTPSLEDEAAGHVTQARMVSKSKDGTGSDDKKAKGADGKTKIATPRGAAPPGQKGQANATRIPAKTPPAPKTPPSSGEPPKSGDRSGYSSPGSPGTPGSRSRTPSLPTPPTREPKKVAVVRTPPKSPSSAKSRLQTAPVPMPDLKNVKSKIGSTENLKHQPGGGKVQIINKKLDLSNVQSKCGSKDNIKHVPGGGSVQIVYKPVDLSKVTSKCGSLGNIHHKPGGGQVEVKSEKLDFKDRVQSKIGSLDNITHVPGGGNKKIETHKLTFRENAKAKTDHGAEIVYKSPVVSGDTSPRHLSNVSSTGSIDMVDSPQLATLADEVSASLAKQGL
# Experimental: as §2, §4, §5
Structure (SMILES),signals in α-Syn aggregated neurons (α-Syn aggregated neurons),specific binding to Aβ (Aβ),Ratio / α-Synuclein (Aβ aggregates [1]),Kd (Aβ aggregates [2]),co-localization with α-Syn-p129 or α-Syn aggregates [3],costaining with p-α-Syn S129 (p-α-Syn S129),Ratio / α-Synuclein (Tau aggregates),Kd (Tau aggregates)
"Cc1cc2nc(/C=C/c3ccc(O)c(N)c3)sc2cc1N(C)CCOCCF [Compound C, (E)-2-amino-4-(2-(6-((2-(2-fluoroethoxy)ethyl)(methyl)amino)-5-methylbenzo[d]thiazol-2-yl)vinyl)phenol]",selectively yielded positive signals,no specific binding,4.80,1.51 µM,co-localized,costained,2.00,0.626 µM
"COc1c(/C=C/c2nc3cc(C)c(N(C)CCOCCF)cc3s2)ccc(O)c1Br [Compound E, (E)-2-bromo-4-(2-(6-((2-(2-fluoroethoxy)ethyl)(methyl)amino)-5-methylbenzo[d]thiazol-2-yl)vinyl)-3-methoxyphenol]",selectively yielded positive signals,no specific binding,5.59,0.0872 µM,co-localized,costained,2.34,0.0365 µM
"CCN(CCOCCF)c1cc2sc(/C=C/c3ccc(O)c(Br)c3)nc2cc1C [Compound R, (E)-2-bromo-4-(2-(6-(ethyl(2-(2-fluoroethoxy)ethyl)amino)-5-methylbenzo[d]thiazol-2-yl)vinyl)phenol]",selectively yielded positive signals,no specific binding,15.74,1.27 µM,co-localized,costained,32.13,2.6 µM

# Reference: EP4733299A1, “SULFUR-CONTAINING FUSED RING COMPOUND, PHARMACEUTICAL COMPOSITION CONTAINING SAME, AND PREPARATION METHOD THEREFOR AND USE THEREOF” (Shenzhen Braegen Pharmaceutical Co., Ltd., priority 2023, dated 2024)
